Laboratory results as given in BindingDB's records for patent US10227350 (Gilead Sciences, 2019).

Target: Phosphatidylinositol 4,5-bisphosphate 3-kinase catalytic subunit beta isoform (Homo sapiens, UniProt P42338)
Assay: TR-FRET Assay
Description: Class I PI3K isoforms were expressed and purified as heterodimeric recombinant proteins. All assay reagents and buffers for the TR-FRET assay were purchased from Millipore. […] The compounds were added to the assay solution and incubated for 30 minutes at 25° C.

Sequence of Phosphatidylinositol 4,5-bisphosphate 3-kinase catalytic subunit beta isoform (P42338 whole entry, canonical isoform): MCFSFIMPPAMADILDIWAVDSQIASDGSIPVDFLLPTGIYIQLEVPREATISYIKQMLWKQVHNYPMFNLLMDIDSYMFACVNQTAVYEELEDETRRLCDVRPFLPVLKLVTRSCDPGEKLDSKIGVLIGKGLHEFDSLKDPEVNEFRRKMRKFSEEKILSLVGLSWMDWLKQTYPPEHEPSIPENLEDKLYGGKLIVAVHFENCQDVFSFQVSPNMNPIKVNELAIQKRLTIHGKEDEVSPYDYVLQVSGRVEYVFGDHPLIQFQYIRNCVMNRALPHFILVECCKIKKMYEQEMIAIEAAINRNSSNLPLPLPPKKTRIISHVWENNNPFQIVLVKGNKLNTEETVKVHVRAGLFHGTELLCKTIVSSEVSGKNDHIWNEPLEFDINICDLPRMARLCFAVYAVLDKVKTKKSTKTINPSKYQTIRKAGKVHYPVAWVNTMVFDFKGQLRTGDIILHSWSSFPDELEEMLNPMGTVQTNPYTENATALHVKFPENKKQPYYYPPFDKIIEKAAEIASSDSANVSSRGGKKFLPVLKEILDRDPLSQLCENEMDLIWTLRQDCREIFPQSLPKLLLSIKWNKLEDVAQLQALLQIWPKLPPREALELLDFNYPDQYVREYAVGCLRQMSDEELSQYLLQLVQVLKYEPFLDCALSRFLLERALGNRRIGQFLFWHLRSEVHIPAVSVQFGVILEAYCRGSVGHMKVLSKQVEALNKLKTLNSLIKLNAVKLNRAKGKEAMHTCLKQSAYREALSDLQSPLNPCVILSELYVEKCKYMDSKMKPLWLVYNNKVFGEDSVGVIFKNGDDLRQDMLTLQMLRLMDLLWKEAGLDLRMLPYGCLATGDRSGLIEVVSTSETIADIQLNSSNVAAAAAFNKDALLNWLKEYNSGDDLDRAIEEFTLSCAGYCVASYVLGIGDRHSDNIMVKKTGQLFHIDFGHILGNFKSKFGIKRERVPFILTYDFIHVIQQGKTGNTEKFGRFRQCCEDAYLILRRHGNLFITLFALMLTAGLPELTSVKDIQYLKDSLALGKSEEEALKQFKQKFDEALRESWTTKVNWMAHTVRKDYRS

Row | IC50 | Compound
1 | 4 nM | CCCc1nc2c(-c3nnc[nH]3)cc(-c3ccnc(N)c3F)cc2n1-c1ccnc2c(Cl)ccc(F)c12 [US10227350, Compound 84]
2 | 5 nM | Cc1cc(-c2cc(-c3nnc[nH]3)c3nc(C)n(-c4ccnc5c(Cl)cccc45)c3c2)ccn1 [US10227350, Compound 40]
